Experimental data taken from ChEMBL document CHEMBL1201862, “PubChem BioAssay data set” (2004).
Where a name gives a salt, the structure may show the parent alone. Active and inactive are the calls of the source.

Experiments:
[1] = biological target: T1, Calpain-2 catalytic subunit (Sus scrofa, UniProt P43367); assay: m-calpain protease blockers, concentration series – biochemical, fluorogenic peptide substrate, dose response (AID 1420); format: functional
T1 sequence (P43367 whole entry): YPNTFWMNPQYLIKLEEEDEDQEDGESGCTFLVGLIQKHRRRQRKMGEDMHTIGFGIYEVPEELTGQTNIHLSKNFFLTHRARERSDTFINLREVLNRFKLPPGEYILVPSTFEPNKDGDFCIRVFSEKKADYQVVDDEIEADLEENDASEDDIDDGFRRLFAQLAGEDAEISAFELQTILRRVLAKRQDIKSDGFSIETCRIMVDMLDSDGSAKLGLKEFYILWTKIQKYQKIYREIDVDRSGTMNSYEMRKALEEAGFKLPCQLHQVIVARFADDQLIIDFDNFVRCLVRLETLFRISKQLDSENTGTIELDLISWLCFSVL

Cysteine protease ATG4B = Cysteine protease ATG4B (Homo sapiens, UniProt Q9Y4P1); format: functional;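 also: Fluorescence-based dose-response confirmation assay measuring inhibition of ATG4B activity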
Phospholipase A2 = Phospholipase A2 (Homo sapiens, UniProt P04054); format: functional;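 also: confirmatory dose-response counterscreen on phospholipase A2, testing hits that came from an ultra-high-throughput screen for ATG4B inhibitors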
cells [2] = format: functional, cell-based
Beta-galactosidase = Beta-galactosidase (Escherichia coli, UniProt Q8VNN2); assay: PubChem AID 485352; format: functional
[3] = Trypanosoma cruzi growth suppression in host cells – NIH3T3 host cells, beta-gal luminescence, confirmation (AID 2044); format: functional, cell-based;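 also: intracellular parasites grown in NIH/3T3 mouse fibroblasts as host cells; luminescent beta-galactosidase reporter signal from transgenic T. cruzi replicating inside host cells; inhibitors lower the luminescence signal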
[4] = biological target: Type-1 angiotensin II receptor (Homo sapiens, UniProt P30556); assay: antagonism of angiotensin II type 1 receptor – cell-based, uHTS hits, selectivity assay for APJ receptor antagonist project, dose response (AID 463214); format: functional;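 also: antagonist potency against angiotensin II stimulated AT1 response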
cells [5] = format: functional, cell-based; remark: listed apart in the source
[6] = NIH3T3 cell viability loss – ATP luminescence, mouse fibroblasts, counter-screen, dose response (AID 2010); format: functional, cell-based;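 also: cells exposed to compound for about 90 hours before reading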
[7] = biological target: T2, Microphthalmia-associated transcription factor (Homo sapiens, UniProt O75030); assay: reducers of TRPM1 reporter luminescence, concentration series – cell-based, SK-MEL-5, cherry-picked, set 3, MITF inhibitor project, dose response (AID 493073); format: functional;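 also: SK-MEL-5 melanoma cells with luciferase driven by the MITF target TRPM1 promoter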
T2 sequence (O75030 whole entry): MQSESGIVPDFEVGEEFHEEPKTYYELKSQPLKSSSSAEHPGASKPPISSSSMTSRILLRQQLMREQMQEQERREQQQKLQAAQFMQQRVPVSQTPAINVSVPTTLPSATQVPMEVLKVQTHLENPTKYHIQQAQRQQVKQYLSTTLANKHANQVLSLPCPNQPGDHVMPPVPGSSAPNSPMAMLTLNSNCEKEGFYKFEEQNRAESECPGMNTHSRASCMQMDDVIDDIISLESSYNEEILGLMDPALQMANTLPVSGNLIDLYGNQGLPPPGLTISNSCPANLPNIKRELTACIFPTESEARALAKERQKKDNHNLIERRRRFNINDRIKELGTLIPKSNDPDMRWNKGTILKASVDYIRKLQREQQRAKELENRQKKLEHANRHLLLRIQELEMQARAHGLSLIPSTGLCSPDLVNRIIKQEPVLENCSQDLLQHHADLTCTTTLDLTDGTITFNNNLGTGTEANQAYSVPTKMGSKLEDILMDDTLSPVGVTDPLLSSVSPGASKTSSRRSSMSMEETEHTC

INS1 = assay: INS-1E survival protection against cytokine death – cell-based, luminescence, retest, dose response (AID 449756); format: functional; details: Rattus norvegicus;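 also: cell death triggered by IL-1 beta plus TNF-alpha plus IFN-gamma mixture; protective hits raise ATP signal compared with cytokine alone wells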
HEK293 = assay: cells; format: functional, cell-based; details: Homo sapiens
[8] = biological target: T3, Nuclear receptor subfamily 0 group B member 1 (Homo sapiens, UniProt P51843); assay: Luminescence-based cell-based high throughput dose response assay for inhibitors of the orphan nuclear receptor subfamily 0, group B, member 1 (DAX1; NR0B1). [Related pubchem assays (depositor defined):AID504766, AID504790]; format: functional
T3 sequence (P51843 whole entry): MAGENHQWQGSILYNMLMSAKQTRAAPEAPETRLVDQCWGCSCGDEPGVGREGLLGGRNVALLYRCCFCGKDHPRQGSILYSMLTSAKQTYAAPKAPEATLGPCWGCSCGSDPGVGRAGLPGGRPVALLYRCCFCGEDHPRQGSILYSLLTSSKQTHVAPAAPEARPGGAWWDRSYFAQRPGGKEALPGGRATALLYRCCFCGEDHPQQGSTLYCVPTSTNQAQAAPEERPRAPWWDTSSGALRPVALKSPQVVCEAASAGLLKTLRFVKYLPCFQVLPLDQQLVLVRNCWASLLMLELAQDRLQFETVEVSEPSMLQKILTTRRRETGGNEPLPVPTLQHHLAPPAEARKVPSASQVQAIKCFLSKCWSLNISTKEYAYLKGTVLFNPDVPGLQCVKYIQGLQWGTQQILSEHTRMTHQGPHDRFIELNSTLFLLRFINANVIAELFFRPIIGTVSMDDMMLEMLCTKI

[9] = biological target: Beta-2 adrenergic receptor (Homo sapiens, UniProt P07550); assay: ADRB2 activation measured by internalization – cell-based, FAP fluorogen, flow cytometry, cherry pick 1, dose response (AID 588763); format: functional
Trypsin = Trypsin (Sus scrofa, UniProt P00761); assay: trypsin protease activity blockade – biochemical, quenched peptide fluorescence, cherry-pick, selectivity assay for Rce1 protease inhibitor project, dose response (AID 488789)
CAAX prenyl protease 2 [10] = biological target: T4, CAAX prenyl protease 2 (Saccharomyces cerevisiae S288c, UniProt Q03530); format: biochemical
T4 sequence (Q03530 whole entry): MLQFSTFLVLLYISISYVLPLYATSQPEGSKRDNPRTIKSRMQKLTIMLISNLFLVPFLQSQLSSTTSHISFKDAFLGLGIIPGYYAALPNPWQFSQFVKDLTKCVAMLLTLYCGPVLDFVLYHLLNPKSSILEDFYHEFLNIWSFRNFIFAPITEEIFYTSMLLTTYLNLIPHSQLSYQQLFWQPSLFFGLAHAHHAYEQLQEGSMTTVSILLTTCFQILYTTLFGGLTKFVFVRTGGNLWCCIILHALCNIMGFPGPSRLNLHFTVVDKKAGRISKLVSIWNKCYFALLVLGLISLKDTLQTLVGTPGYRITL

CAAX prenyl protease 2 [11] = biological target: CAAX prenyl protease 2 (Homo sapiens, UniProt Q9Y256); assay: inhibition of Ras-converting CAAX protease Rce1 – biochemical, yeast membranes, quenched-peptide fluorescence, cherry-pick, dose response (AID 588849)
[12] = NIH-3T3 fibroblast cytotoxicity, dose response, cytotoxicity control, cell-based, fluorescence, Alamar Blue, secondary assay (AID 2327); format: functional;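 also: NIH-3T3 mouse fibroblasts cultured with fluconazole at 8 µg/mL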
[13] = fluconazole-exposed Candida albicans growth modulators – fluorescence, retest, confirmation (AID 2467); format: functional, cell-based
[14] = Luminescence Cell-Based Dose Retest to Confirm Inhibitors of Cancer Stem Cells. [Related pubchem assays (depositor defined):AID2717, AID2721]; format: functional; details: Homo sapiens
[15] = biological target: Peroxisome proliferator-activated receptor gamma/Nuclear receptor coactivator 2 (Homo sapiens, UniProt P37231); format: functional;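 also: agonist potency for raising coactivator recruitment to the receptor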
[16] = biological target: Peroxisome proliferator-activated receptor gamma/Nuclear receptor coactivator 1 (Homo sapiens, UniProt P37231); format: functional;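 also: agonist potency as compounds enhance coactivator SRC-1 recruitment to PPARgamma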
[17] = biological target: Peroxisome proliferator-activated receptor gamma/Nuclear receptor coactivator 3 (Homo sapiens, UniProt P37231); format: functional;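 also: agonist potency for raising coactivator recruitment to the receptor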
SUMO-activating enzyme = SUMO-activating enzyme (Homo sapiens, UniProt Q9UBT2); assay: blockers of UBC9-mediated SUMO conjugation – biochemical, AlphaScreen, SUMOylation inhibitor project, confirmation (AID 2018); format: functional
[18] = viability of PTEN-deleted HCT116 cells – cell-based, HCT116 PTEN knockout, dose response (AID 1047); format: functional;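 also: HCT116 colon tumor cells with PTEN knocked out; cells exposed to compound for 60 hours before readout; potency for loss of cell viability measured by luminescence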
[19] = viability of HCT116 lacking mutant beta-catenin – cell-based, human colon tumor, dose response (AID 1045); format: functional;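 also: HCT116 colon tumor cells with beta catenin knocked out; cells exposed to compound for 60 hours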
[20] = system: Streptococcus sp. 'group A'; assay: Streptococcus pyogenes SK(-)GAS viability under kanamycin – luminescence, BacTiterGlo, confirmation, counter-screen for streptokinase expression inhibitor project, dose response (AID 1900); format: functional, organism-based
Streptococcus = assay: GAS UMAA2166 growth inhibition – luminescence, BacTiterGlo, counter-screen for streptokinase expression inhibitor project, dose response (AID 1915); format: functional, organism-based;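 also: potency for reduction of bacterial viability or growth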
[21] = biological target: T5, DNA repair and recombination protein RAD54-like (Homo sapiens, UniProt Q92698); assay: RAD54 Holliday junction migration blockers – biochemical, fluorescence, cherry-picked samples, dose series, confirmation (AID 651657); format: functional
T5 sequence (Q92698 whole entry): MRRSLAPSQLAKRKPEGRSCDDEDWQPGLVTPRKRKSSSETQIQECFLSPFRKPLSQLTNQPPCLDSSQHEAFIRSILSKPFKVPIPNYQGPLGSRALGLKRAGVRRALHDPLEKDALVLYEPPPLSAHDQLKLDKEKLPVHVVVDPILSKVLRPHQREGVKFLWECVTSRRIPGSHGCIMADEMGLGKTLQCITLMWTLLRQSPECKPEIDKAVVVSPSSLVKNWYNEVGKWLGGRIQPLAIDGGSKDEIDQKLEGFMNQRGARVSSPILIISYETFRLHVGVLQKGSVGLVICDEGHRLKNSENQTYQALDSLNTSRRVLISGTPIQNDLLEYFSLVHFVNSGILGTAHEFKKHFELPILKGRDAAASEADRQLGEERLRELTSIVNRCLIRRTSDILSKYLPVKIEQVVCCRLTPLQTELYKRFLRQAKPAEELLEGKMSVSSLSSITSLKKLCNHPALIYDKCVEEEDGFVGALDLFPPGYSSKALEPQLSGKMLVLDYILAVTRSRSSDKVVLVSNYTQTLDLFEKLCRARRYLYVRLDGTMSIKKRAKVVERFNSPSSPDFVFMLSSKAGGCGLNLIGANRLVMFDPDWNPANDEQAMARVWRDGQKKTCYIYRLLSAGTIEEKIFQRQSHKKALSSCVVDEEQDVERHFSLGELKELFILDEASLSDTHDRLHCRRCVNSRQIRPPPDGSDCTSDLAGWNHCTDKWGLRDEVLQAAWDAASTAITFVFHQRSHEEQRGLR

Mu-type opioid receptor = Mu-type opioid receptor (Homo sapiens, UniProt P35372); format: functional, cell-based;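 also: U2OS cells with beta-arrestin recruitment to OPRM1 by beta-gal complementation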
[22] = biological target: 5-hydroxytryptamine receptor 2A (Mus musculus, UniProt P35363); format: functional, cell-based;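 also: CHO-K1 cells with tagged receptor and beta-arrestin; agonist potency measured as compound-induced activation of the receptor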
[23] = biological target: Voltage-gated inwardly rectifying potassium channel KCNH2 (Homo sapiens, UniProt Q12809); details: Potency;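 also: confirmatory quantitative high-throughput screen measuring inhibition of hERG channel activity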
Voltage-gated inwardly rectifying potassium channel KCNH2, sequence (Q12809 whole entry): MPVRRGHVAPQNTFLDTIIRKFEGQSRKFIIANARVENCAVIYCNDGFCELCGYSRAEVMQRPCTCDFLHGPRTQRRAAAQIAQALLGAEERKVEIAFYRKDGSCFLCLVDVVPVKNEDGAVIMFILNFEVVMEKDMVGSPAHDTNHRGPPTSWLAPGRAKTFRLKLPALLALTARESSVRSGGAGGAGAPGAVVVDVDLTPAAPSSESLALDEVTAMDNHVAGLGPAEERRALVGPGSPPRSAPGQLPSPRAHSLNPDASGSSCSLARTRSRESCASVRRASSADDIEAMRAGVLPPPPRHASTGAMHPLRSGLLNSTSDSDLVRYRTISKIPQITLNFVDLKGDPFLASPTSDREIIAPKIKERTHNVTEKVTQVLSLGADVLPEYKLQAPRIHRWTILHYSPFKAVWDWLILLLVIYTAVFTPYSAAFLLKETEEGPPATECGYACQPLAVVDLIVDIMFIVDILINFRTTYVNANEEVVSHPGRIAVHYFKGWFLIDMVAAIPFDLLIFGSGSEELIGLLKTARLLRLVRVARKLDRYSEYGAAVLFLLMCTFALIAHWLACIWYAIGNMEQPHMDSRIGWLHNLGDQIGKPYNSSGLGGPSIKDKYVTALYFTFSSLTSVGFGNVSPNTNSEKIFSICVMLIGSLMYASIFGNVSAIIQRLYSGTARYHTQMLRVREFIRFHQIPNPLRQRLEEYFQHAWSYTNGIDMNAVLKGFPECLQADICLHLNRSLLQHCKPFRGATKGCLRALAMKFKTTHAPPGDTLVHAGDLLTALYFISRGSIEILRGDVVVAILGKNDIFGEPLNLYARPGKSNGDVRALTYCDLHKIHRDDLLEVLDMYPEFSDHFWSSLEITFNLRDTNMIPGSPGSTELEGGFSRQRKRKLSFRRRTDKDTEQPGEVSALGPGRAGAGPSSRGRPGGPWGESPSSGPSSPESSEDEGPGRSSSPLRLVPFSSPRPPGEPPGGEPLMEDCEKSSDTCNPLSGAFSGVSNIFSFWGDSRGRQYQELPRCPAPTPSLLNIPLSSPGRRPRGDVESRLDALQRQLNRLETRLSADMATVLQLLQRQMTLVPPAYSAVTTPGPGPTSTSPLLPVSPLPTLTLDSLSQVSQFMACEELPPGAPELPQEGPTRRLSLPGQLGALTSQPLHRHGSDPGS

CAAX prenyl protease 2 (Homo sapiens, UniProt Q9Y256), sequence (Q9Y256 whole entry): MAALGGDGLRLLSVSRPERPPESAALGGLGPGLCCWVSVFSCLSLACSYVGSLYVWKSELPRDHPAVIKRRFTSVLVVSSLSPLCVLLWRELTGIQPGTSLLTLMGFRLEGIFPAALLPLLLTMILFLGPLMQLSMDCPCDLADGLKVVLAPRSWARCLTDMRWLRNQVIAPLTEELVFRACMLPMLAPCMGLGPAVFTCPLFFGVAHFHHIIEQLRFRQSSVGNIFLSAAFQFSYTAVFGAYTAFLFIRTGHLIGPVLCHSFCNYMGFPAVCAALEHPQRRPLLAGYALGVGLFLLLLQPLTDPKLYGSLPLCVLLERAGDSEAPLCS
Trypsin, sequence (P00761 whole entry): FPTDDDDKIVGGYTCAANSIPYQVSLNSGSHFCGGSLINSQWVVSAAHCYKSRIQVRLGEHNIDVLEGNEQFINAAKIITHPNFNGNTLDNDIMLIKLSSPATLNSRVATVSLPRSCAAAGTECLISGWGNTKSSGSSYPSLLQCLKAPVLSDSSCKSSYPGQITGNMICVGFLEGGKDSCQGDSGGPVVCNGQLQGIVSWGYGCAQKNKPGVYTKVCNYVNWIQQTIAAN
Beta-galactosidase, sequence (Q8VNN2 whole entry): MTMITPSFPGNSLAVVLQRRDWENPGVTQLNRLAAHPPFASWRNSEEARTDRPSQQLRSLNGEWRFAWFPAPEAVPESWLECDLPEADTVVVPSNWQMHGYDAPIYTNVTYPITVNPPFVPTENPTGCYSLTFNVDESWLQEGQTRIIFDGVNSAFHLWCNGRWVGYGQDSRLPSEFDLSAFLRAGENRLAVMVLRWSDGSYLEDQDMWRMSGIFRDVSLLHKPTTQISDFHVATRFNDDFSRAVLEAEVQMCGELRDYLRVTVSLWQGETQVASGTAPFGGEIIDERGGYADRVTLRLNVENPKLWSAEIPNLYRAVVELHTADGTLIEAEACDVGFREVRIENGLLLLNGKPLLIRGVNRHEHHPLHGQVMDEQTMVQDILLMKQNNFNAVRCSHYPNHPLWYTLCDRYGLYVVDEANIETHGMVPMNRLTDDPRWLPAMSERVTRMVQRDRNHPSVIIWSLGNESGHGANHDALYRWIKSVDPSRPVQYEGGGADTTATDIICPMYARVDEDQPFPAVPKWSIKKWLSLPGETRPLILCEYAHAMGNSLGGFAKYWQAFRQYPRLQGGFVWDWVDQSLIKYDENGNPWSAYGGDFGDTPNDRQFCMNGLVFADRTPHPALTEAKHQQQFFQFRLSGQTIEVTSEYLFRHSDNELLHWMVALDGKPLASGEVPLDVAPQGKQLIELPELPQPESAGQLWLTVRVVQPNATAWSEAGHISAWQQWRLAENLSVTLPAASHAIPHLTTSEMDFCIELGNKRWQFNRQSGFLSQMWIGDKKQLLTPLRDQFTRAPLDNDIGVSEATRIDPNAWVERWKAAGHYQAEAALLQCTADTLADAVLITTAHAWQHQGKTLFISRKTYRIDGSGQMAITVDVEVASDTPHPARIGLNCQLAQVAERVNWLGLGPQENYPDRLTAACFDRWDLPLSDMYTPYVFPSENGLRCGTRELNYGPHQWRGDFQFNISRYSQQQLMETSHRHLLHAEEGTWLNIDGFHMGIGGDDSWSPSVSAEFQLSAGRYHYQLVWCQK
Cysteine protease ATG4B, sequence (Q9Y4P1 whole entry): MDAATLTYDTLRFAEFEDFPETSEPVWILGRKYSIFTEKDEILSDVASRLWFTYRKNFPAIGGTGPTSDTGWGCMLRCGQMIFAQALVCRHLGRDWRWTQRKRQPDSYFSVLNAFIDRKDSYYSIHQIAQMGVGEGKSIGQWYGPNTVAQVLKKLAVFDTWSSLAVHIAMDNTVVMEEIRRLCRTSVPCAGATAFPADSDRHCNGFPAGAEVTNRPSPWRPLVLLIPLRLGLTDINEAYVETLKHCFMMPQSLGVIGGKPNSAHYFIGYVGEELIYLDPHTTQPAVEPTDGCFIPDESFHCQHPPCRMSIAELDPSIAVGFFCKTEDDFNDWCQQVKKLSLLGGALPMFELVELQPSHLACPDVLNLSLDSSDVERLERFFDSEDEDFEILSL
Phospholipase A2, sequence (P04054 whole entry): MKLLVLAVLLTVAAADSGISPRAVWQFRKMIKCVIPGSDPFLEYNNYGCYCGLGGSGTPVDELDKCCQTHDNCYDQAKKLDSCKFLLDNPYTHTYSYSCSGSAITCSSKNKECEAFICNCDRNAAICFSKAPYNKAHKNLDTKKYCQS
Beta-2 adrenergic receptor, sequence (P07550 whole entry): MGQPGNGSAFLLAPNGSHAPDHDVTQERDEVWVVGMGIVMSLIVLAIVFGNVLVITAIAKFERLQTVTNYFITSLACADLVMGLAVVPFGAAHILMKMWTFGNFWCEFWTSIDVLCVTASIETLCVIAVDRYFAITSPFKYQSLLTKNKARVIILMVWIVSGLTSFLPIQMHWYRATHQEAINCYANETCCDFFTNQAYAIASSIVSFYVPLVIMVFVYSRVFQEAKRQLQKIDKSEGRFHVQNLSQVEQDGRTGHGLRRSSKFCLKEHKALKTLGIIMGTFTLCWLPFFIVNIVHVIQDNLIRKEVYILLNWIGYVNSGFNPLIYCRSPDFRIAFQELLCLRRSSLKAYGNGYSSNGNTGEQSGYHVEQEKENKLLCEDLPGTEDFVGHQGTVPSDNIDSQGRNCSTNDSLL
Type-1 angiotensin II receptor, sequence (P30556 whole entry): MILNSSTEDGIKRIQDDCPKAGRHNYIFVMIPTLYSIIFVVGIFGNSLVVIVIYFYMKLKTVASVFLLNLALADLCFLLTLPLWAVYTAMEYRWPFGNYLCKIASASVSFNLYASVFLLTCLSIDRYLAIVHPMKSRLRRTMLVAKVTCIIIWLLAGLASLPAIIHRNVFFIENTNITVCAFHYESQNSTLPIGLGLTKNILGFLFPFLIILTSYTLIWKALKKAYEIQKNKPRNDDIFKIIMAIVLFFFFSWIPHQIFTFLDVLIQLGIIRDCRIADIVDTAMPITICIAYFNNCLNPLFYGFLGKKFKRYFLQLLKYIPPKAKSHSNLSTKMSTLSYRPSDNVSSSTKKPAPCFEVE
Mu-type opioid receptor, sequence (P35372 whole entry): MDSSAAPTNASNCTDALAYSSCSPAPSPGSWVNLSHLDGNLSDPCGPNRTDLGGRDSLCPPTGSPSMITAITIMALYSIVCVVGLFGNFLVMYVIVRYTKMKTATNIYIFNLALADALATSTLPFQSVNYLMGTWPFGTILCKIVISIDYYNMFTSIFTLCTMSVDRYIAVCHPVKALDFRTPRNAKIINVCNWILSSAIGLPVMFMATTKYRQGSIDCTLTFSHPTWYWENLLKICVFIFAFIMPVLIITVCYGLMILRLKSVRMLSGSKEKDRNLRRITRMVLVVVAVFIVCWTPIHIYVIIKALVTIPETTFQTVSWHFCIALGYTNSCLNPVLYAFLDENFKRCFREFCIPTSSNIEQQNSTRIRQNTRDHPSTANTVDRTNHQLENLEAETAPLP
5-hydroxytryptamine receptor 2A, sequence (P35363 whole entry): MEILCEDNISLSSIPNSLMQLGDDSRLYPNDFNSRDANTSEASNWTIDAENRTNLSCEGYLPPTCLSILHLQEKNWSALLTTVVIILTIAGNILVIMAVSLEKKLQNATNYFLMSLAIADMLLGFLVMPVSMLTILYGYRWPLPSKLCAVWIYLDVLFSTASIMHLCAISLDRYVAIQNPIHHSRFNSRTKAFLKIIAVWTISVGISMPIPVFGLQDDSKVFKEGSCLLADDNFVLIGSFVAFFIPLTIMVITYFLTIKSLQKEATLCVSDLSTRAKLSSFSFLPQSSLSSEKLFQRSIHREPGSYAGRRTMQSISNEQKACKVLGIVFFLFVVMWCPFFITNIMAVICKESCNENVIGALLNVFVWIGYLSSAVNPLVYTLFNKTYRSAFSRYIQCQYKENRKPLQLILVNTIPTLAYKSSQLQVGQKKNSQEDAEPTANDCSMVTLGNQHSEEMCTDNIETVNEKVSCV

SMILES: O=C(COC(=O)c1cc(Cl)ccc1[N+](=O)[O-])NCc1ccc(Cl)cc1Cl
- IC50 [1]: 6.14 µM (not active)
- IC50 (Cysteine protease ATG4B): 16.3 µM (active)
- IC50 (Phospholipase A2): 11.2 µM (active)

SMILES: COc1cc(C(=O)N/N=C(\c2ccccc2)c2ccccn2)cc(OC)c1OC
- EC50 (cells [2]): 10.3 µM (active)
- EC50 (Beta-galactosidase): > 40 µM (inactive)
- EC50 [3]: 0.473 µM (active)
- IC50 [4]: > 40 µM (not active)
- EC50 (cells [5]): > 350 µM (not active)
- EC50 [6]: 0.75 µM (active)
- AC50 [7]: 13.8 µM (active)
- AC50 (INS1): 0.499 µM (active)

SMILES: O=C(Nc1nc(-c2ccccc2)ns1)c1ccncc1
- IC50 (HEK293): > 67.5 µM (inactive)
- IC50 [8]: > 67.5 µM (inactive)

SMILES: CC1CCC(NC(=O)CCS(=O)(=O)c2ccc3c(c2)CCN3C(=O)C2CC2)CC1 (stereo unspecified)
- EC50 [9]: 0.522 µM (active)

SMILES: CCc1cc(=O)oc2c(C)c(OC(C)C(=O)NC3CC(C)(C)NC(C)(C)C3)ccc12 (stereo unspecified)
- AC50 (Trypsin): 14.1 µM (active)
- AC50 (CAAX prenyl protease 2 [10]): 17.5 µM (active)
- AC50 (CAAX prenyl protease 2 [11]): 17 µM (active)

SMILES: Cc1cc(C(=O)NNc2ccc(F)cc2F)no1
- EC50 [12]: 2.93 µM (active)
- EC50 [13]: > 38 µM (not active)
- AC50 [14]: 1.1 µM (active)
- IC50 (HEK293): > 67.5 µM (inactive)
- IC50 [8]: > 67.5 µM (inactive)

SMILES: O=C(Nc1ccc2oc(-c3ccc4ccccc4c3)nc2c1)c1ccc2c(c1)OCCO2
- EC50 [15]: 22.1 µM (not active)
- EC50 [16]: 27.1 µM (not active)
- EC50 [17]: 37.1 µM (not active)
- IC50 (SUMO-activating enzyme): 38.9 µM (active)
- EC50 [18]: 12.4 µM (active)
- EC50 [19]: 18.4 µM (active)
- EC50 [9]: 5.58 µM (active)

SMILES: CN1c2ccccc2-c2nc3ccccc3n2C1c1cccs1 (stereo unspecified)
- AC50 (Trypsin): 0.989 µM (active)
- AC50 (CAAX prenyl protease 2 [10]): 4.28 µM (active)
- AC50 (CAAX prenyl protease 2 [11]): 0.769 µM (active)

SMILES: CC(C)(C)n1ncc2c(=O)n(Cc3ccccc3Br)cnc21
- IC50 (Cysteine protease ATG4B): 10.8 µM (active)
- IC50 (Phospholipase A2): 7.12 µM (active)

SMILES: CCCN(CCC)c1nc(-c2ccccn2)nc2ccccc12
- EC50 [20]: 1.02 µM (active)
- EC50 (Beta-galactosidase): > 40 µM (inactive)
- EC50 [3]: 0.374 µM (active)
- IC50 [4]: 23.9 µM (not active)
- EC50 [6]: 1.76 µM (active)
- EC50 (Streptococcus): 1.85 µM (active)
- AC50 (INS1): 1.77 µM (active)
- AC50 [21]: 13.3 µM (active)

SMILES: CCCN1CC[C@@H]2c3cc(O)ccc3CC[C@@H]21
- EC50 (Mu-type opioid receptor): 92.5 µM (inactive)
- EC50 [22]: 76.1 µM (inactive)
- AC50 [23]: 35.5 µM (inconclusive)

SMILES: CNCCCC1c2ccccc2C=Cc2ccccc21 [PROTRIPTYLINE HYDROCHLORIDE]
- AC50 [23]: 31.6 µM (inconclusive)
